Measurements from ChEMBL document CHEMBL1250439, “2-phenyl-1-[4-(2-piperidine-1-yl-ethoxy)benzyl]-1H-benzimidazoles as ligands for the estrogen receptor: synthesis and pharmacological evaluation” (Bioorg Med Chem, 2010).
Activity calls are given as the source filed them. The rule behind the calls is not given here.

Assays:
MCF7 [1] = experiment: Cytostatic activity against human MCF7 cells at 5 uM after 3 days by microtiter assay; type: functional
MDA-MB-231 = experiment: Cytostatic activity against human MDA-MB-231 cells after 3 days by microtiter assay; type: functional, cell-based
MCF7 [2] = experiment: Cytostatic activity against human MCF7 cells at 10 uM after 3 days by microtiter assay; type: functional
Adenosine receptor A1 = target: T1, Adenosine receptor A1 (Rattus norvegicus, UniProt P25099); experiment: Displacement of [3H]CCPA from adenosine A1 receptor in rat brain cortical membrane; type: cell membranes
T1 sequence (P25099 whole entry): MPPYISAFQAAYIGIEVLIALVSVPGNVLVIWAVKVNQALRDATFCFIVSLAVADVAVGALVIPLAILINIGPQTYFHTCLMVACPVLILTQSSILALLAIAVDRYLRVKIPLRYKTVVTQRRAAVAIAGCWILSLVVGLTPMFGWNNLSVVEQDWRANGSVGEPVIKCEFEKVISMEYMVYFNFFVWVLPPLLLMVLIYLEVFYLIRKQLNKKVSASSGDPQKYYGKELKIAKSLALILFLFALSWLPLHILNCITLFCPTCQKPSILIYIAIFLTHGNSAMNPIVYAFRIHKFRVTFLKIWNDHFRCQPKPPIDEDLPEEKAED

Calf thymus DNA = experiment: Binding affinity to calf thymus DNA assessed as change in melting temperature; type: nucleic-acid assay; conditions: Bos taurus
[3] = target: T2, Estrogen receptor (Homo sapiens) (UniProt P03372); experiment: Displacement of [3H]E2 from human estrogen receptor alpha relative to control
T2 sequence (whole entry): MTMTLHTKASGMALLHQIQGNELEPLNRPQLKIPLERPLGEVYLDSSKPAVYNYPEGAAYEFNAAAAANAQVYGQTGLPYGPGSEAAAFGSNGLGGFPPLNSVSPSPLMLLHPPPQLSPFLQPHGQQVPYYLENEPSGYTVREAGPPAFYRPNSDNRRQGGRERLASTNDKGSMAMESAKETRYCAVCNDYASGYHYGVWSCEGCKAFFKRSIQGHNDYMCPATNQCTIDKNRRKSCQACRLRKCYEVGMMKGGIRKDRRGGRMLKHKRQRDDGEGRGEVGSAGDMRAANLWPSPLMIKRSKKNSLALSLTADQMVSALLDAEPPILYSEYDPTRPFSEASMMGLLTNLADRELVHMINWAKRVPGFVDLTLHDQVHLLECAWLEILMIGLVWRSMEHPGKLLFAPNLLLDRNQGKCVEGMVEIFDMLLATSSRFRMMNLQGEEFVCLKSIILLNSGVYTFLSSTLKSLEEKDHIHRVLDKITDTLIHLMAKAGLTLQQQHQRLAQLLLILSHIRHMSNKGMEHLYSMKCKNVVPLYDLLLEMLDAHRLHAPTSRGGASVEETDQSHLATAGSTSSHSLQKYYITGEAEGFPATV

[4] = target: Estrogen receptor beta (Homo sapiens) (UniProt Q92731); experiment: Displacement of [3H]E2 from human estrogen receptor beta relative to control
Chain of Estrogen receptor beta (Homo sapiens) (Q92731 whole entry): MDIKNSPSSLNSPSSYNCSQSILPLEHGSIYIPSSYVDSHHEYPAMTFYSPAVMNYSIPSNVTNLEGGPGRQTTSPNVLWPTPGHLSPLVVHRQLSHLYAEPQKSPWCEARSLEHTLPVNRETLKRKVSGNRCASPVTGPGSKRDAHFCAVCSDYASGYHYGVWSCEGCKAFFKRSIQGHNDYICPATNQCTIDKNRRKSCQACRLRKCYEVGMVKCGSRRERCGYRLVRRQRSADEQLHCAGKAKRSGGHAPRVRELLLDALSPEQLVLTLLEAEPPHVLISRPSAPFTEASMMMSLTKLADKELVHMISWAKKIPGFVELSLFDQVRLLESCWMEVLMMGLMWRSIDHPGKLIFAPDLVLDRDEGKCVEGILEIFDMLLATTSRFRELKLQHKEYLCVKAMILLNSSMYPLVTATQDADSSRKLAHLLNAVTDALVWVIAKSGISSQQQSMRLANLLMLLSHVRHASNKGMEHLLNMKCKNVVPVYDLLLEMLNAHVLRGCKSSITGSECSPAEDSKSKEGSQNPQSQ

MCF7 [5] = experiment: Cytostatic activity against human MCF7 cells at 1 uM after 3 days by microtiter assay; type: functional
Estrogen receptor [6] = target: T3, Estrogen receptor (Homo sapiens, UniProt P03372); experiment: Antagonist activity at human ERalpha expressed in human MCF7 cells at 10 uM by luciferase reporter gene assay; type: functional, cell-based
T3 sequence (P03372 whole entry): T2 sequence (whole entry)

Estrogen receptor [7] = target: T3, Estrogen receptor; experiment: Antagonist activity at human ERalpha expressed in human MCF7 cells by luciferase reporter gene assay; type: functional, cell-based

| Structure (SMILES) | T/C (MCF7 [1]) [%] | Activity (MDA-MB-231) | Activity (MCF7 [2]) | ΔTm (Calf thymus DNA) [°C] | T/C (MCF7 [2]) [%] | T/C (MCF7 [5]) [%] | other results |
| --- | --- | --- | --- | --- | --- | --- | --- |
| CCC(=C(c1ccc(O)cc1)c1ccc(OCCN(C)C)cc1)c1ccccc1 | 0 | Active | inactive | – | – | – | – |
| O=C(c1ccc(OCCN2CCCCC2)cc1)c1c(-c2ccc(O)cc2)sc2cc(O)ccc12 [RALOXIFENE] | 0 | Active | inactive | – | – | – | – |
| CC/C(=C(\c1ccccc1)c1ccc(OCCN(C)C)cc1)c1ccccc1 [TAMOXIFEN] | 0 | Active | inactive | – | – | – | – |
| Oc1ccc(-c2nc3cc(O)ccc3n2Cc2ccc(OCCN3CCCCC3)cc2)cc1 | – | – | – | 3 | – | – | Ki (Adenosine receptor A1): 3.7 µM |
| Oc1ccc2c(c1)nc(-c1ccccc1)n2Cc1ccc(OCCN2CCCCC2)cc1 | 0 | – | – | 3 | <0 | 50 | RBA [3]: 0.43%; RBA [4]: 0.54% |
| Oc1ccc(-c2nc3ccccc3n2Cc2ccc(OCCN3CCCCC3)cc2)cc1 | 0 | – | – | 3 | <0 | 50 | IC50 (Estrogen receptor [6]): 5.1 µM |
| Oc1ccc(-c2nc3ccc(O)cc3n2Cc2ccc(OCCN3CCCCC3)cc2)cc1 | – | – | – | 3 | – | – | Ki (Adenosine receptor A1): ≤ 3.7 µM |
| Oc1ccc2nc(-c3ccccc3)n(Cc3ccc(OCCN4CCCCC4)cc3)c2c1 | 0 | – | – | 3 | <0 | 50 | IC50 (Estrogen receptor [7]): 310 nM |
